Measurements taken from patent US9085555B2, “Complement pathway modulators and uses thereof” (priority 2011, dated 2015).

Target: Factor D (Homo sapiens (Human), UniProt P00746)
Assay: biochemical
Assay type: biochemical
Details: read-out: IC50

Sequence of Factor D (P00746 26-253): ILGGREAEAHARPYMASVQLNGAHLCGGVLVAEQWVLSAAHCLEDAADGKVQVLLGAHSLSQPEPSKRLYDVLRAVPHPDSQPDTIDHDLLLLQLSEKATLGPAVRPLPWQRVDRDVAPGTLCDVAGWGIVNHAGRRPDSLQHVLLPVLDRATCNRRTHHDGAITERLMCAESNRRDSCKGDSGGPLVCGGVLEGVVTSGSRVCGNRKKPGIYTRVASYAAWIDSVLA

Going from `CC(C)(C)n1nnnc1-c1cc(Cl)c(F)c(CNC(=O)[C@@H]2C[C@@H](F)CN2C(=O)Nc2cn(C(N)=O)c3ccccc23)c1` [Example 347, (2S,4R)-4-Fluoro-pyrrolidine-1,2-dicarboxylic acid 2-[5-(1-tert-butyl-1H-tetrazol-5-yl)-3-chloro-2-fluoro-benzylamide]1-[(1-carbamoyl-1H-indol-3-yl)-amide]] to `NC(=O)n1cc(NC(=O)N2C[C@@H](C(F)F)C[C@H]2C(=O)NCc2cccc(Cl)c2F)c2ccccc21` [Example 359, 2S,4S)-4-Difluoromethyl-pyrrolidine-1,2-dicarboxylic acid 1-[(1-carbamoyl-1H-indol-3-yl)-amide]2-(3-chloro-2-fluoro-benzylamide], the IC50 falls from 677 nM to 250 nM (2.7-fold).

`NC(=O)n1cc(NC(=O)N2CC[C@H](F)[C@H]2C(=O)NCc2cccc(Cl)c2)c2ccccc21` [Example 348, 2R,3S)-3-Fluoro-pyrrolidine-1,2-dicarboxylic acid 1-[(1-carbamoyl-1H-indol-3-yl)-amide]2-(3-chloro-benzylamide] and `NC(=O)n1cc(NC(=O)N2CC[C@@H](F)[C@H]2C(=O)NCc2cccc(Cl)c2)c2ccccc21` [Example 349, 2R,3R)-3-Fluoro-pyrrolidine-1,2-dicarboxylic acid 1-[(1-carbamoyl-1H-indol-3-yl)-amide]2-(3-chloro-benzylamide] are within 1.5-fold of each other in IC50: 200 nM for the first, 150 nM for the second.

First: C[C@@H]1CC[C@@H](C(=O)NCc2cccc(Cl)c2F)N1C(=O)Nc1cn(C(N)=O)c2ccccc12 [Example 350, 2S,5R)-5-Methyl-pyrrolidine-1,2-dicarboxylic acid 1-[(1-carbamoyl-1H-indol-3-yl)-amide]2-(3-chloro-2-fluoro-benzylamide]
Second: CC[C@@H]1CC[C@@H](C(=O)NCc2cccc(Cl)c2F)N1C(=O)Nc1cn(C(N)=O)c2ccccc12 [Example 351, 2S,5R)-5-Ethyl-pyrrolidine-1,2-dicarboxylic acid 1-[(1-carbamoyl-1H-indol-3-yl)-amide]2-(3-chloro-2-fluoro-benzylamide]
The IC50 of the first is 7.1-fold lower: 85 nM for the first, 600 nM for the second.

Going from `NC(=O)n1cc(NC(=O)N2C[C@H](CO)C[C@H]2C(=O)NCc2cccc(Cl)c2F)c2ccccc21` [Example 352, 2S,4R)-4-Hydroxymethyl-pyrrolidine-1,2-dicarboxylic acid 1-[(1-carbamoyl-1H-indol-3-yl)-amide]2-(3-chloro-2-fluoro-benzylamide] to `NC(=O)n1cc(NC(=O)N2C[C@@H](CO)C[C@H]2C(=O)NCc2cccc(Br)c2F)c2ccccc21` [Example 355, (2S,4S)-4-Hydroxymethyl-pyrrolidine-1,2-dicarboxylic acid 2-(3-bromo-2-fluoro-benzylamide) 1-[(1-carbamoyl-1H-indol-3-yl)-amide]], the IC50 falls from 200 nM to 104 nM (1.9-fold).

First: COC(=O)[C@H]1C[C@@H](C(=O)NCc2c(F)ccc(Cl)c2F)N(C(=O)Nc2cn(C(N)=O)c3ccccc23)C1 [Example 353, (3S,5S)-1-(1-carbamoyl-1H-indol-3-ylcarbamoyl)-5-(3-chloro-2,6-difluoro-benzylcarbamoyl)-pyrrolidine-3-carboxylic acid methyl ester]
Second: NC(=O)n1cc(NC(=O)N2C[C@@H](C(=O)O)C[C@H]2C(=O)NCc2c(F)ccc(Cl)c2F)c2ccccc21 [Example 354, (3S,5S)-1-(1-Carbamoyl-1H-indol-3-ylcarbamoyl)-5-(3-chloro-2,6-difluoro-benzylcarbamoyl)-pyrrolidine-3-carboxylic acid]
The IC50 of the first is 6.6-fold lower: 252 nM for the first, 1660 nM for the second. The first is the more potent here.

`NC(=O)n1cc(NC(=O)N2C[C@](F)(CO)C[C@H]2C(=O)NCc2cccc(Cl)c2F)c2ccccc21` [Example 356, 2S,4S)-4-Fluoro-4-hydroxymethyl-pyrrolidine-1,2-dicarboxylic acid 1-[(1-carbamoyl-1H-indol-3-yl)-amide]2-(3-chloro-2-fluoro-benzylamide] and `NC(=O)n1cc(NC(=O)N2[C@H]3C[C@@]3(CO)C[C@H]2C(=O)NCc2cccc(Cl)c2F)c2ccccc21` [Example 357, 1S,3S,5R)-5-Hydroxymethyl-2-aza-bicyclo[3.1.0]hexane-2,3-dicarboxylic acid 2-[(1-carbamoyl-1H-indol-3-yl)-amide]3-(3-chloro-2-fluoro-benzylamide] are within 1.5-fold of each other in IC50: 480 nM for the first, 389 nM for the second.

First: NC(=O)n1cc(NC(=O)N2[C@H](C(=O)NCc3cccc(Cl)c3F)C[C@@]3(CO)C[C@@H]23)c2ccccc21 [Example 358, 1R,3S,5S)-5-Hydroxymethyl-2-aza-bicyclo[3.1.0]hexane-2,3-dicarboxylic acid 2-[(1-carbamoyl-1H-indol-3-yl)-amide]3-(3-chloro-2-fluoro-benzylamide]
Second: NC(=O)n1cc(NC(=O)N2[C@@H]3C[C@@H]3C[C@H]2C(=O)NCc2cccc(Cl)c2F)c2cc(O)ccc21 [Example 371, (1R,3S,5R)-2-aza-bicyclo[3.1.0]hexane-2,3-dicarboxylic acid 2-[(1-carbamoyl-5-hydroxy-1H-indol-3-yl)-amide]3-(3-chloro-2-fluoro-benzylamide)]
The IC50 of the first is 2.7-fold higher: 8 nM for the first, 3 nM for the second. The second is the more potent here.

Going from `NC(=O)n1cc(NC(=O)N2[C@@H](CO)CC[C@H]2C(=O)Nc2cccc(OC(F)(F)F)c2)c2ccccc21` [Example 360, (2S,5R)-5-Hydroxymethyl-pyrrolidine-1,2-dicarboxylic acid 1-[(1-carbamoyl-1H-indol-3-yl)-amide]2-[(3-trifluoromethoxy-phenyl)-amide]] to `O=C(Nc1cccc(OC(F)(F)F)c1)[C@@H]1CCCN1C(=O)Nc1cn(C(=O)CO)c2ccccc12` [Example 366, (S)-Pyrrolidine-1,2-dicarboxylic acid 1-{[1-(2-hydroxy-acetyl)-1H-indol-3-yl]-amide}2-[(3-trifluoromethoxy-phenyl)-amide]], the IC50 rises from 1000 nM to 3250 nM (3.2-fold).

First: NC(=O)n1cc(NC(=O)N2N=CCC2C(=O)NCc2cccc(Cl)c2)c2ccccc21 (centres unmarked) [Example 361, 4,5-Dihydro-pyrazole-1,5-dicarboxylic acid 1-[(1-carbamoyl-1H-indol-3-yl)-amide]5-(3-chloro-benzylamide)]
Second: NC(=O)n1cc(NC(=O)N2[C@@H]3C[C@@H]3C[C@H]2C(=O)NCc2ccccc2F)c2cc(O)ccc21 [Example 372, (1R,3S,5R)-2-Aza-bicyclo[3.1.0]hexane-2,3-dicarboxylic acid 2-[(1-carbamoyl-5-hydroxy-1H-indol-3-yl)-amide]3-(2-fluoro-benzylamide)]
The IC50 of the first is 1.8-fold lower: 25 nM for the first, 45 nM for the second. The first is the more potent here.

Going from `CC(=O)n1cc(NC(=O)N2CCC[C@H]2C(=O)Nc2cccc(OC(F)(F)F)c2)c2ccc(C#N)cc21` [Example 367, (S)-Pyrrolidine-1,2-dicarboxylic acid 1-[(1-acetyl-6-cyano-1H-indol-3-yl)-amide]2-[(3-trifluoromethoxy-phenyl)-amide]] to `NC(=O)n1cc(NC(=O)N2CCC[C@H]2C(=O)Nc2cccc(OC(F)(F)F)c2)c2ccc(O)cc21` [Example 369, (S)-Pyrrolidine-1,2-dicarboxylic acid 1-[(1-carbamoyl-6-hydroxy-1H-indol-3-yl)-amide]2-[(3-trifluoromethoxy-phenyl)-amide]], the IC50 falls from 7950 nM to 850 nM (9.4-fold).

Compared with `CC(=O)n1cc(NC(=O)N2C[C@H](F)C[C@H]2C(=O)NCc2cccc(Cl)c2F)c2ccc(OC(F)F)cc21` [Example 368, 2S,4R)-4-Fluoro-pyrrolidine-1,2-dicarboxylic acid 1-[(1-acetyl-6-difluoromethoxy-1H-indol-3-yl)-amide]2-(3-chloro-2-fluoro-benzylamide], `NC(=O)n1cc(NC(=O)N2[C@@H]3C[C@@H]3C[C@H]2C(=O)NCc2cccc(Cl)c2F)c2ccc(OCC(=O)O)cc21` [Example 376, (1-Carbamoyl-3-{[(1R,3S,5R)-3-(3-chloro-2-fluoro-benzylcarbamoyl)-2-aza-bicyclo[3.1.0]hexane-2-carbonyl]-amino}-1H-indol-6-yloxy)-acetic acid] is 3.7-fold higher in IC50: 66 nM for the first, 247 nM for the second.

Going from `NC(=O)n1cc(NC(=O)N2CCC[C@H]2C(=O)Nc2cccc(OC(F)(F)F)c2)c2cc(O)ccc21` [Example 370, (S)-Pyrrolidine-1,2-dicarboxylic acid 1-[(1-carbamoyl-5-hydroxy-1H-indol-3-yl)-amide]2-[(3-trifluoromethoxy-phenyl)-amide]] to `C[C@@]1(F)C[C@@H](C(=O)NCc2cccc(Cl)c2F)N(C(=O)Nc2cn(C(N)=O)c3ccc(OCC(=O)O)cc23)C1` [Example 375, (1-Carbamoyl-3-{[(2S,4R)-2-(3-chloro-2-fluoro-benzylcarbamoyl)-4-fluoro-4-methyl-pyrrolidine-1-carbonyl]-amino}-1H-indol-5-yloxy)-acetic acid], the IC50 falls from 95 nM to 2 nM (48-fold). The second is the more potent here.

First: N#CCOc1ccc2c(c1)c(NC(=O)N1[C@@H]3C[C@@H]3C[C@H]1C(=O)NCc1cccc(Cl)c1F)cn2C(N)=O [Example 373, 1R,3S,5R)-2-Aza-bicyclo[3.1.0]hexane-2,3-dicarboxylic acid 2-[(1-carbamoyl-5-cyanomethoxy-1H-indol-3-yl)-amide]3-(3-chloro-2-fluoro-benzylamide]
Second: NC(=O)n1cc(NC(=O)N2[C@@H]3C[C@@H]3C[C@H]2C(=O)NCc2cccc(Cl)c2F)c2cc(OCCO)ccc21 [Example 379, (1R,3S,5R)-2-aza-bicyclo[3.1.0]hexane-2,3-dicarboxylic acid 2-{[1-carbamoyl-5-(2-hydroxy-ethoxy)-1H-indol-3-yl]-amide}3-(3-chloro-2-fluoro-benzylamide)]
The IC50 of the first is 5-fold lower: 1 nM for the first, 5 nM for the second.

First: NC(=O)n1cc(NC(=O)N2[C@@H]3C[C@@H]3C[C@H]2C(=O)NCc2cccc(Cl)c2F)c2cc(OCC(=O)O)ccc21 [Example 374, (1-Carbamoyl-3-{[(1R,3S,5R)-3-(3-chloro-2-fluoro-benzylcarbamoyl)-2-aza-bicyclo[3.1.0]hexane-2-carbonyl]-amino}-1H-indol-5-yloxy)-acetic acid]
Second: NC(=O)n1cc(NC(=O)N2[C@@H]3C[C@@H]3C[C@H]2C(=O)NCc2cccc(Cl)c2F)c2cc(CC(=O)O)ccc21 [Example 377, (1-Carbamoyl-3-{[(1R,3S,5R)-3-(3-chloro-2-fluoro-benzylcarbamoyl)-2-aza-bicyclo[3.1.0]hexane-2-carbonyl]-amino}-1H-indol-5-yl)-acetic acid]
The IC50 of the first is 6.7-fold lower: 3 nM for the first, 20 nM for the second.

`NC(=O)n1cc(NC(=O)N2[C@@H]3C[C@@H]3C[C@H]2C(=O)NCc2cccc(Cl)c2F)c2ccc(CC(=O)O)cc21` [Example 378, (1-Carbamoyl-3-{[(1R,3S,5R)-3-(3-chloro-2-fluoro-benzylcarbamoyl)-2-aza-bicyclo[3.1.0]hexane-2-carbonyl]-amino}-1H-indol-6-yl)-acetic acid] was tested, and the IC50 was 24 nM.
